Assay results: patent US8377640B2, “Diagnostic screens for Alzheimer's disease” (ISIS Innovation Ltd., priority 2001, dated 2013)
Where “and” joins values, the source holds several entries; their conditions need not be identical. Identical values can stand only once.

Experiments:
[1] = test system: cultured lymphocytes; assay: MTT survival assay of PHA-activated lymphocyte cultures, treated versus control; assay type: cell-based, human
Method: In the second set of experiments (53 subjects) after an initial 48 hours incubation (as above) four separate cultures were set up. Control cultures were left without any treatment, one set of cultures was treated with 100 ng/ml rapamycin, the third set was treated with 1 μM doxorubicin while the fourth set was treated with 120 μM H2O2. Doxorubicin induces DNA damage, leading to arrest at G2/M, rather than G1/S. H2O2 treatment produces oxidative stress, leading to a reversible and temporary cell cycle arrest at G1/S.
After 20 hours of incubation a 4 hour long MTT survival assay (Chemicon International Ltd) was set up. Results were read using a microplate reader (570 filter; 630 reference filter). The ratio between cell numbers in treated cultures versus controls was expressed as percent.

[2] = test system: cultured lymphocytes; assay: Relative lengthening of the G1 phase (BrdU incorporation, FACS) in PHA-activated lymphocyte cultures treated with rapamycin; assay type: cell-based, human; conditions: 100 ng/ml rapamycin; for dG1: relative lengthening of the G1 phase of the cell cycle under Rapamycin effect: 24 h; for Mean (dG1): group mean
Method: A first set of experiments was carried out on 49 subjects (Table 1A), whilst a second set of experiments was carried out on 55 subjects (Table 1B). In the first set of experiments (49 subjects) two parallel lymphocyte cultures were set up from every individual in RPMI medium supplemented with 10% FCS at a concentration of 1×10^6 cells per 1 ml of culture media. Phytohaemaglutinin (PHA) was added to the cultures at a final concentration of 22 μg/ml to activate the lymphocytes. Cultures were incubated for 48 hours at 37° C. in a humidified atmosphere containing 5% CO2. After 48 hours incubation one culture was treated with 100 ng/ml rapamycin, while the other untreated culture was kept as a control. After a further 23 hours incubation BrdU was added in a concentration of 10 μg/ml to all cultures. After another hour cultures were ‘collected’ and fixed in 70% ice-cold ethanol. BrdU incorporation was assessed using immunohistochemistry followed by FACS analysis. The proportion of cells in various phases of the cell cycle was determined and data transformation performed to obtain the relative lengthening of the G1 phase (FIG. 1).
The calculations (relative lengthening of the G1 phase of the cell cycle in treated cultures relative to control cultures) were based on the assumptions that cells were in the exponential phase of proliferation and that the growth fraction in the cultures (ratio of dividing cells versus quiescent cells) was 1.0 (5). It was also assumed that rapamycin only altered the length of the G1 phase (19). Based on these assumptions the relative lengthening of the G1 phase was calculated using the formula: RL=100f-100 (expressed in percent). The ratio of the G1 time in treated versus control cultures: f=TG1tr/TG1c=[1n2−1n(2−G1tr)][1n(2−G1c)]/[1n(2−G1tr)][1n2−1n(2−G1c)] (5)

COc1cccc2c1C(=O)c1c(O)c3c(c(O)c1C2=O)C[C@@](O)(C(=O)CO)C[C@@H]3O[C@H]1C[C@H](N)[C@H](O)[C@H](C)O1 [Doxorubicin, doxorubicin]
Cell numbers after treatment (treated versus control cultures) ([1]; 1 μM doxorubicin, 24 h, comparison between patient groups): did not result in significant differences between patient groups

OO [H2O2]
Cell numbers after treatment (treated versus control cultures) ([1]; 120 μM H2O2, 24 h, AD, preAD and possAD patients versus control subjects): significantly higher cell numbers than control subjects

CO[C@H]1C[C@@H]2CC[C@@H](C)[C@@](O)(O2)C(=O)C(=O)N2CCCC[C@H]2C(=O)O[C@H]([C@H](C)C[C@@H]2CC[C@@H](O)[C@H](OC)C2)CC(=O)[C@H](C)/C=C(\C)[C@@H](O)[C@@H](OC)C(=O)[C@H](C)C[C@H](C)/C=C/C=C/C=C/1C [rapamycin]
dG1: relative lengthening of the G1 phase of the cell cycle under Rapamycin effect ([2]; lymphocytes of individual patients, diagnosis AD (probable AD, NINCDS)): 44.03% and 97.07% and 82.67% and 62.12% and 73.01% and 47.91% and 53.63% and 0% and 27% | dG1: relative lengthening of the G1 phase of the cell cycle under Rapamycin effect ([2]; lymphocytes of individual patients, diagnosis ADM): 64.28% and 39.2% and 95.23% and 46.31% and 59.49% and 51.81% and 51.62% | dG1: relative lengthening of the G1 phase of the cell cycle under Rapamycin effect ([2]; lymphocytes of individual patients, diagnosis DNOS): 31.64% and 69.07% and 97.27% | dG1: relative lengthening of the G1 phase of the cell cycle under Rapamycin effect ([2]; lymphocytes of individual patients, diagnosis possAD): 56.77% and 60.1% and 98.1% | dG1: relative lengthening of the G1 phase of the cell cycle under Rapamycin effect ([2]; lymphocytes of individual subjects, diagnosis Control): 51.69% and 64.1% and 40.07% and 114.1% and 119.8% and 50.04% and 177.8% and 62.81% and 54.56% and 162.7% and 97.33% and 46.02% and 110.8% and 140.6% | dG1: relative lengthening of the G1 phase of the cell cycle under Rapamycin effect ([2]; lymphocytes of individual subjects, diagnosis preAD): 0% (3×) and 26.1% and 36.18% and 54.46% and 39.2% and 72.58% and 44.49% and 31.37% and 25.47% and 35.02% and 42.1% | Mean (dG1) ([2]; AD, n=9): 54.1602% | Mean (dG1) ([2]; ADM, n=7): 58.2765% | Mean (dG1) ([2]; CONTROL, n=14): 92.3135% | Mean (dG1) ([2]; DNOS, n=3): 65.9933% | Mean (dG1) ([2]; POSSAD, n=3): 71.6584% | Mean (dG1) ([2]; PREAD, n=13): 31.3039% | Mean dG1 by ApoE4 ([2]; subjects with 0 ApoE4 alleles, n=28): 61.1186% | Mean dG1 by ApoE4 ([2]; subjects with 1 ApoE4 allele, n=19): 63.0025% | Mean dG1 by ApoE4 ([2]; subjects with 2 ApoE4 alleles, n=2): 49.6519%
